The target in this assay is T1, leukotriene receptor (guinea pig lung membranes) (Cavia porcellus, UniProt Q2NNR5).
T1 construct: 20 mg original tissue wet weight of guinea pig lung; tissue Kuiper Rabbit Farm, Gary, IN (animals); host or cells: guinea pig lung, crude membranes
T1 sequence (Q2NNR5 1-340): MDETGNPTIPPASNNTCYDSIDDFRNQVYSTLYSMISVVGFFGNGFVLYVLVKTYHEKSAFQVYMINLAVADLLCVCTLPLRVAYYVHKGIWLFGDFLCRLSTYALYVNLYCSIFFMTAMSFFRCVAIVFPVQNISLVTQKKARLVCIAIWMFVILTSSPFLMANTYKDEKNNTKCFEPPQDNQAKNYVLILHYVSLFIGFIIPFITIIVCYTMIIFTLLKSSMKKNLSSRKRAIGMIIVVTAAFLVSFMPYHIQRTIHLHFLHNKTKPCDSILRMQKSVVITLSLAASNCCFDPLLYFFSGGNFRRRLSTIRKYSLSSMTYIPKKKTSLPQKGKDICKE
Nature of the assay: Binding of ^3 H-Leukotriene D4 to Guinea Pig Lung Membranes (RBL). Conditions: 0.2 nM ^3 H-LTD4, 60 min, 25° C.; read-out: Concentration (M) for 50.0 % Inhibition, IC (RBL). Summed up:
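Crude lung membranes from 300 g male guinea pigs (20 mg tissue/ml) were incubated in triplicate with 0.2 nM ³H-LTD4 in 50 mM Tris pH 7.7, 10 mM MgCl2, 1% DMSO for 60 min at 25 °C. Bound ligand was collected by GF/B filtration and scintillation counting; nonspecific binding defined with 100 nM LTC4.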

Consider 23 compounds from patent US4868195A, “Novel enolamides, pharmaceutical compositions and methods of use thereof for activity as modulators of the arachidonic acid cascade” (Warner-Lambert Company, priority 1988, dated 1989).

Several values for one entry are separate records, joined by “and”; a condition that tells them apart may be missing. Equal values may be shown once.

On to `O=C(Nc1cccc(CCc2ccc(Cl)c(Cl)c2)c1)c1sc2ccccc2c1O` [Example 146, Benzo[b]thiophene-2-carboxamide, N-[3-[2-(3,4-dichlorophenyl)ethyl]phenyl]-3-hydroxy], for which the IC50 worked out at 1.02e-06 M.
The same measure for `CCCCCCCCCCc1ccc(NC(=O)C2CS(=O)(=O)c3ccccc3C2=O)cc1` (centres unmarked) [Example 60, N-(4-Decylphenyl)-3,4-dihydro-4-oxo-2H-1-benzoothiopyran-3-carboxamide, 1,1-dioxide]: 1.21e-05 M; for `O=C(Nc1ccc(C=Cc2ccc(Cl)c(Cl)c2)cc1)C1=C(O)c2ccccc2S(=O)(=O)C1` [Example 74, 2H-1-Benzothiopyran-3-carboxamide, N-[4-[2-(3,4-dichlorophenyl)ethenyl]phenyl]-4-hydroxy-, 1,1-dioxide]: 5.27e-06 M; for `O=C(Nc1ccccc1CCCc1ccc(Cl)c(Cl)c1)C1=C(O)c2ccccc2S(=O)(=O)C1` [Example 80, 2H-1-Benzothiopyran-3-carboxamide, N-[2-[3-(3,4-dichlorophenyl)propyl]phenyl]-4-hydroxy-, 1,1-dioxide]: 1.27e-05 M.
The same measure for `O=C(Nc1ccc(CCc2ccccc2)cc1)C1CS(=O)(=O)c2ccccc2C1=O` (centres unmarked) [Example 16, 3,4-Dihydro-4-oxo-N-[(4-(2-phenyl)ethyl]-phenyl]-2H-1-benzothiopyran-3-carboxamide, 1,1-dioxide]: 1.28e-05 M; for `O=C(Nc1ccccc1CCc1ccc(Cl)c(Cl)c1)C1=C(O)c2ccccc2S(=O)(=O)C1` [Example 8, N-[2-[2-(3,4-Dichlorophenyl)ethyl]phenyl]-4-hydroxy-2H-1-benzothiopyran-3-carboxamide, 1,1-dioxide]: 4.21e-06 M; for `O=C(Nc1ccc(CCc2ccc(-c3ccccc3)cc2)cc1)C1CS(=O)(=O)c2ccccc2C1=O` (centres unmarked) [Example 46, N-[4-[2-([1,1'-biphenyl]-4-yl)ethyl]phenyl]-3,4-dihydro-4-oxo-2H-1-benzothiopyran-3-carboxamide, 1,1-dioxide]: 2.15e-05 M and 1.87e-05 M.
On to `O=C(Nc1ccc(CCc2ccc(Cl)cc2)cc1)C1CS(=O)(=O)c2ccccc2C1=O` (centres unmarked) [Example 54, N-[4-[2-(4-Chlorophenyl)ethyl]phenyl]-3,4-dihydro-4-oxo-2H-1-benzothiopyran-3-carboxamide, 1,1-dioxide], for which the IC50 is 1.09e-05 M.
On to `O=C(Nc1ccccc1Cc1ccc(Cl)c(Cl)c1)C1=C(O)c2ccccc2S(=O)(=O)C1` [Example 81, 2H-1-Benzothiopyran-3-carboxamide, N-[2-[(3,4-dichlorophenyl)methyl]phenyl]-4-hydroxy, 1,1-dioxide], for which the IC50 worked out at 1.01e-05 M.
On to `Cc1ccc(CCc2ccc(NC(=O)C3CS(=O)(=O)c4ccccc4C3=O)cc2)cc1C` (centres unmarked) [Example 53, N-[4-[2-(3,4-Dimethylphenyl)ethyl]phenyl]-3,4-dihydro-4-oxo-2H-1-benzothiopyran-3-carboxamide, 1,1-dioxide], for which the IC50 was 3.54e-06 M.
The same measure for `O=C(Nc1ccc(CCc2ccc3ccccc3c2)cc1)C1=C(O)c2ccccc2S(=O)(=O)C1` [Example 51, 4-Hydroxy-N-[4-[2-(2-naphthalenyl)ethyl]phenyl]-2H-1-benzothiopyran-3-carboxamide, 1,1-dioxide]: 3.84e-06 M; for `O=C(Nc1ccc(Cc2ccc(Cl)c(Cl)c2)cc1)C1=C(O)c2ccccc2S(=O)(=O)C1` [Example 78, 2H-1-Benzothiopyran-3-carboxamide, N-[4-[(3,4-dichlorophenyl)methyl]phenyl]-4-hydroxy-, 1,1-dioxide]: 4.82e-06 M.
For `O=C(Nc1cccc(CCc2ccc(Cl)c(Cl)c2)c1)C1=C(O)c2ccccc2S(=O)(=O)C1` [Example 76, 2H-1-Benzothiopyran-3-carboxamide, N-[3-[2-(3,4-dichlorophenyl)ethyl]phenyl]-4-hydroxy-, 1,1-dioxide], the IC50 was determined as 3e-06 M.
The same measure for `O=C(Nc1ccc(CCCc2ccc(Cl)c(Cl)c2)cc1)C1=C(O)c2ccccc2S(=O)(=O)C1` [Example 79, 2H-1-Benzothiopyran-3-carboxamide, N-[4-[3-(3,4-dichlorphenyl)propyl]phenyl]-4-hydroxy-, 1,1-dioxide]: 4.13e-07 M and 5.3e-07 M; for `COc1ccc(CCc2ccc(NC(=O)C3=C(O)c4ccccc4S(=O)(=O)C3)cc2)cc1OC` [Example 18, N-[4-[2-(3,4-Dimethoxyphenyl)ethyl]phenyl]-4-hydroxy-2H-1-benzothiopyran-3-carboxamide, 1,1-dioxide]: 7.19e-05 M.
As to `COc1ccc(CCc2ccc(NC(=O)c3sc4ccccc4c3O)cc2)cc1OC` [Example 143, Benzo[b]thiophene-2-carboxamide, N-[4-[2-(3,4-dimethoxphenyl)ethyl]phenyl]-3-hydroxy], the IC50 was found to be 1.21e-05 M.
The same measure for `O=C(Nc1ccc(C=Cc2ccc([N+](=O)[O-])cc2)cc1)C1CS(=O)(=O)c2ccccc2C1=O` (centres unmarked) [Example 67, 2H-1-Benzothiopyran-3-carboxamide, 3,4-dihydro-N-[4-[2-(4-nitrophenyl)ethenyl]phenyl]-4-oxo-, 1,1-dixide]: 6.56e-06 M and 1.04e-05 M; for `COc1ccc(CCc2ccc(NC(=O)C3CS(=O)(=O)c4ccccc4C3=O)cc2)cc1` (centres unmarked) [Example 41]: 1.26e-05 M.
The same measure for `CCCCOc1ccc(CCc2ccc(NC(=O)C3CS(=O)(=O)c4ccccc4C3=O)cc2)cc1` (centres unmarked) [Example 48]: 6.48e-06 M and 1.19e-05 M and 2e-05 M and 1.29e-05 M.
The same measure for `O=C(Nc1ccc(CCc2cccc3ccccc23)cc1)C1=C(O)c2ccccc2S(=O)(=O)C1` [Example 73, 2H-1-Benzothiopyran-3-carboxamide, 4-hydroxy-N-[4-[2-(1-naphthalenyl)ethyl]phenyl], 1,1-dioxide]: 3.84e-06 M; for `COc1cc(CCc2ccc(NC(=O)C(=O)c3sc4ccccc4c3O)cc2)ccc1O` [Example 142, Benzo[b]thiophene-2-acetamide, 3-hydroxy-N-[4-[2-(4-hydroxy-3-methoxyphenyl)ethyl]phenyl]-α-oxo-]: 6.1e-05 M.
On to `O=C(Nc1ccc(CCc2c(F)c(F)c(F)c(F)c2F)cc1)C1=C(O)c2ccccc2S(=O)(=O)C1` [Example 64, N-[4-[2-(2,3,4,5,6-Pentafluorophenyl)ethyl]phenyl]-4-hydroxy-2H-1-benzothiopyran-3-carboxamide, 1,1-dioxide], for which the IC50 is 6.11e-06 M and 9.49e-06 M and 2.82e-06 M.
Take `COc1ccc(CCc2ccc(NC(=O)C3CS(=O)(=O)c4ccccc4C3=O)cc2)cc1O` (centres unmarked) [Example 27, 3,4-Dihydro-N-[4-[2-(3-hydroxy-4-methoxyphenyl)ethyl]phenyl]-4-oxo-2H-1-benzothiopyran-3-carboxamide, 1,1-dioxide]: the IC50 was 0.000106 M and 0.00012 M.
